From PMC9864514, “Evaluation of the Local Anesthetic Activity, Acute Toxicity, and Structure–Toxicity Relationship in Series of Synthesized 1-Aryltetrahydroisoquinoline Alkaloid Derivatives In Vivo and In Silico” (Molecules, 2023)
“Also recorded” adds a separate entry of the source.

Experiments:
Type in all cases: in vivo
[1] = Acute toxicity and resorptive action in white mice, intragastric administration; settings: mouse, in vivo, po, intragastric administration, N = 10, Litchfield–Wilcoxon
Method: (§1) The acute toxicity and resorptive action were determined in white mice weighing 20–24 g by gradual oral administration at doses of 1–5000 mg/kg.
(§2) The animals were kept under standard nursery conditions with a natural 12-h light-dark cycle, at an air temperature of 20 ± 2 °C. The animals had unlimited access to food and water. The experiments were performed in accordance with the International Convention for the Protection of Vertebrate Animals used for Experimental and Scientific Purposes (Strasbourg, 1986). Each substance was tested on 10 mice and LD50 was determined graphically by the well-known Litchfield–Wilcoxon method.

rabbit eye cornea = assay: Local anesthetic activity, rabbit eye cornea terminal anesthesia test; settings: for Onset of Anesthesia / Total Duration of Anesthesia / Duration of Complete Anesthesia / Duration of complete anesthesia, times longer than lidocaine: rabbit corneal model; for Onset of Anesthesia / Total Duration of Anesthesia / Duration of Complete Anesthesia: 1% aqueous solution; for Duration of Complete Anesthesia: percentage of the anesthetic activity of lidocaine (=100%); for Duration of complete anesthesia, times longer than lidocaine: 1% concentration; for Local irritant effects on rabbit eyes: concentrations studied
Method: Local anesthetic activity was evaluated using the rabbit eye cornea terminal anesthesia test on 2.0–2.5 kg male chinchilla rabbits after introduction of total 0.4 mL (0.2 mL twice with an interval of 30 s) of 1.0 % solutions of the studied substances. Lidocaine was used as an etalon drug. Each substance was tested on three rabbits.

white mice = assay: Acute toxicity and resorptive action in white mice, intragastric administration; settings: for Decrease of acute toxicity compared with 3a: intragastric, relative to parent compound 3a
Method: as §1, §2

SMILES	LD50 [1] [mg/kg]	Onset of Anesthesia (rabbit eye cornea) [min]	Total Duration of Anesthesia (rabbit eye cornea) [min]	Duration of Complete Anesthesia (rabbit eye cornea)	Decrease of acute toxicity compared with 3a (white mice)	Duration of complete anesthesia, times longer than lidocaine (rabbit eye cornea) [times]	LD50 (white mice; intragastric administration, N = 10, Litchfield–Wilcoxon)	Local irritant effects on rabbit eyes (rabbit eye cornea)
COc1cc2c(cc1OC)C(c1ccccc1)NCC2 (centres unmarked) [Compound 3a, 1-(Phenyl)-6,7-dimethoxy-1,2,3,4-tetrahydroisoquinoline]	280	3.0 ± 1.1	53.0 ± 4.6	+50%	–	–	–	–
COc1cc2c(cc1OC)C(c1ccccc1O)NCC2 (centres unmarked) [Compound 3b, 1-(2′-Hydroxyphenyl)-6,7-dimethoxy-1,2,3,4-tetrahydroisoquinoline]	375	1.0 ± 0.4	44.0 ± 1.5	+50%	did not result in a significant decrease of toxicity	–	–	–
COc1ccc(C2NCCc3cc(OC)c(OC)cc32)cc1O (centres unmarked) [Compound 3c, 1-(3′-Hydroxy-4′-methoxyphenyl)-6,7-dimethoxy-1,2,3,4-tetrahydroisoquinoline]	980	3.0 ± 0.8	70.0 ± 4.5	+40%	3.5 fold	–	–	–
COc1ccc(C2NCCc3cc(OC)c(OC)cc32)cc1OC (centres unmarked) [Compound 3d, 1-(3′,4′-Dimethoxyphenyl)-6,7-dimethoxy-1,2,3,4-tetrahydroisoquinoline]	670	2.0 ± 0.7	70.0 ± 2.1	+60%	2.5–2.6 fold	–	–	–
COc1cc2c(cc1OC)C(c1ccc(O)c(Br)c1)NCC2 (centres unmarked) [Compound 3e, 1-(3′-Bromo-4′-hydroxyphenyl)-6,7-dimethoxy-1,2,3,4-tetrahydroisoquinoline]	3850	5.0 ± 0.9	80.0 ± 3.2	+49%	13.75 fold	–	–	–
COc1cc2c(cc1OC)C(c1cc(Br)ccc1O)NCC2 (centres unmarked) [Compound 3f, 1-(5′-Bromo-2′-hydroxyphenyl)-6,7-dimethoxy-1,2,3,4-tetrahydroisoquinoline]	305	1.0 ± 0.5	64.0 ± 3.8	–	did not result in a significant decrease of toxicity	1.6	–	–
COc1cc(Br)c(C2NCCc3cc(OC)c(OC)cc32)cc1OC (centres unmarked) [Compound 3g, 1-(2′-Bromo-4′,5′-dimethoxyphenyl)-6,7-dimethoxy-1,2,3,4-tetrahydroisoquinoline]	290	2.0 ± 1.0	44.0 ± 3.5	+90%	no significant change in acute toxicity	–	–	–
COc1cc(Br)c(C2NCCc3cc(OC)c(OC)cc32)cc1O (centres unmarked) [Compound 3h, 1-(2′-Bromo-5′-hydroxy-4′-methoxyphenyl)-6,7-dimethoxy-1,2,3,4-tetrahydroisoquinoline]	550	1.0 ± 0.4	40.0 ± 3.2	+170%	about 2 fold	1.7	–	–
COc1cc2c(cc1OC)C(c1ccc3c(c1)OCO3)NCC2 (centres unmarked) [Compound 3i, 1-(3′,4′-Methylenedioxyphenyl)-6,7-dimethoxy-1,2,3,4-tetrahydroisoquinoline]	280	2.0 ± 0.4	57.0 ± 3.7	+80%	did not lead to a change in acute toxicity	–	–	–
COc1cc2c(cc1OC)C(c1cc3c(cc1Br)OCO3)NCC2 (centres unmarked) [Compound 3j, 1-(2′-Bromo-4′,5′-methylenedioxyphenyl)-6,7-dimethoxy-1,2,3,4-tetrahydroisoquinoline]	730	2.0 ± 1.0	52.0 ± 4.0	+90%	2.5 fold	–	–	–
COc1cc2c(cc1OC)C(c1cc3c(cc1Cl)OCO3)NCC2 (centres unmarked) [Compound 3k, 1-(4′,5′-Methylenedioxy-2′-chlorophenyl)-6,7-dimethoxy-1,2,3,4-tetrahydroisoquinoline]	520	2.0 ± 1.2	43.0 ± 4.5	+90%	1.86 fold	–	–	–
COc1cc2c(cc1OC)C(c1cc(Br)c(O)c(OC)c1)NCC2 (centres unmarked) [Compound 3l, 1-(5′-Bromo-4′-hydroxy-3′-methoxyphenyl)-6,7-dimethoxy-1,2,3,4-tetrahydroisoquinoline]	1560	5.0 ± 1.2	89.0 ± 3.0	+140%	5.6 fold	1.4	–	–
COc1cc2c(cc1OC)C(c1ccc([N+](=O)[O-])cc1)NCC2 (centres unmarked) [Compound 3m, 1-(4′-Nitrophenyl)-6,7-dimethoxy-1,2,3,4-tetrahydroisoquinoline]	1950	3.0 ± 0.4	48.0 ± 2.8	+80%	–	–	–	–
COc1cc2c(cc1OC)C(c1cccc([N+](=O)[O-])c1)NCC2 (centres unmarked) [Compound 3n, 1-(3′-Nitrophenyl)-6,7-dimethoxy-1,2,3,4-tetrahydroisoquinoline]	460 ± 598	3.0 ± 1.0	37.0 ± 3.2	+260%	–	2.6	525 (460.5 ± 598.5) mg/kg	eye irritation and redness; also recorded: reversible irritation and redness of the eyes
COc1cc2c(cc1OC)C(c1cccc(Br)c1)NCC2 (centres unmarked) [Compound 3o, 1-(3′-Bromophenyl)-6,7-dimethoxy-1,2,3,4-tetrahydroisoquinoline]	710	2.0 ± 0.4	115.0 ± 3.8	+130%	2.5–2.6 fold	–	–	–
COc1cc2c(cc1OC)C(c1ccccc1OC)NCC2 (centres unmarked) [Compound 3p, 1-(2′-Methoxyphenyl)-6,7-dimethoxy-1,2,3,4-tetrahydroisoquinoline]	300	3.0 ± 0.8	67.0 ± 3.6	+300%	did not result in a significant decrease of toxicity	3.0	–	–
COc1cc2c(cc1OC)C(c1ccc(N(C)C)cc1)NCC2 (centres unmarked) [Compound 3q, 1-(4′-Dimethylaminophenyl)-6,7-dimethoxy-1,2,3,4-tetrahydroisoquinoline]	1250	2.0 ± 0.6	45.0 ± 4.1	+220%	~4.5 fold	2.2	–	–
COc1cc2c(cc1OC)C(c1ccc(Cl)cc1)NCC2 (centres unmarked) [Compound 3r, 1-(4′-Chlorophenyl)-6,7-dimethoxy-1,2,3,4-tetrahydroisoquinoline]	740	2.0 ± 0.6	35.0 ± 3.4	+150%	2.5–2.6 fold	–	–	eye irritation and redness; also recorded: reversible irritation and redness of the eyes
COc1cc2c(cc1OC)C(c1ccc(N)cc1)NCC2 (centres unmarked) [Compound 4a, 1-(4′-Aminophenyl)-6,7-dimethoxy-1,2,3,4-tetrahydroisoquinoline]	1050	2.0 ± 0.7	25.0 ± 4.0	+40%	3.75 fold	–	–	eye irritation and redness; also recorded: reversible irritation and redness of the eyes
COc1cc2c(cc1OC)C(c1cccc(N)c1)NCC2 (centres unmarked) [Compound 4b, 1-(3′-Aminophenyl)-6,7-dimethoxy-1,2,3,4-tetrahydroisoquinoline]	750	3.0 ± 0.7	44.0 ± 4.1	+0%	–	–	–	–
CCN(CC)CC(=O)Nc1c(C)cccc1C [Lidocaine, reference compound]	–	5.0 ± 0.5	52.7 ± 4.9	–	–	–	–	–
